Article PMC5218480 (PLoS ONE, 2017)

Tested on: MV-4-11 cells
Experiment: Gene expression microarray analysis (Affymetrix PrimeView) and GSEA
Type: cell-based, human
Set-up: RFU PODN (11730768_x_at) / Fold change /veh PODN (11730768_x_at) / RFU LINC00158 (11744669_a_at) / Fold change /veh LINC00158 (11744669_a_at) / RFU DUSP10 (11751237_a_at) / Fold change /veh DUSP10 (11751237_a_at) / RFU ID3 (11757404_x_at) / Fold change /veh ID3 (11757404_x_at) / RFU PLEKHG5 (11737974_s_at) / Fold change /veh PLEKHG5 (11737974_s_at) / RFU LRRC4B (11730491_at) / Fold change /veh LRRC4B (11730491_at) / RFU GIMAP4 (11747438_a_at) / Fold change /veh GIMAP4 (11747438_a_at) / RFU KRT8 (11758183_x_at) / Fold change /veh KRT8 (11758183_x_at) / RFU CNN1 (11734310_a_at) / Fold change /veh CNN1 (11734310_a_at) / RFU VPS37D (11726825_at) / Fold change /veh VPS37D (11726825_at) / RFU C10orf10 (11716522_x_at) / Fold change /veh C10orf10 (11716522_x_at) / RFU KIR2DL2 /// KIR2DL4 /// KIR2DL5A /// KIR2DL5B /// KIR2DS1 /// KIR2DS2 /// KIR2DS3 /// KIR2DS4 /// KIR3DL3 /// KIR3DL3 /// KIR3DS1 (11738374_at) / Fold change /veh KIR2DL2 /// KIR2DL4 /// KIR2DL5A /// KIR2DL5B /// KIR2DS1 /// KIR2DS2 /// KIR2DS3 /// KIR2DS4 /// KIR3DL3 /// KIR3DL3 /// KIR3DS1 (11738374_at) / RFU C1QL1 (11718748_at) / Fold change /veh C1QL1 (11718748_at) / RFU TMPRSS4 (11747572_a_at) / Fold change /veh TMPRSS4 (11747572_a_at) / RFU HAMP (11756126_x_at) / Fold change /veh HAMP (11756126_x_at) / RFU RNFT2 (11725882_a_at) / Fold change /veh RNFT2 (11725882_a_at) / RFU NR4A2 (11747474_a_at) / Fold change /veh NR4A2 (11747474_a_at) / RFU ABCC12 (11746883_a_at) / Fold change /veh ABCC12 (11746883_a_at) / RFU TMEM136 (11760407_x_at) / Fold change /veh TMEM136 (11760407_x_at) / RFU CLDN22 /// WWC2 (11732394_at) / Fold change /veh CLDN22 /// WWC2 (11732394_at) / RFU HLA-DPB1 (11760878_x_at) / Fold change /veh HLA-DPB1 (11760878_x_at) / RFU SPINT1 (11716480_a_at) / Fold change /veh SPINT1 (11716480_a_at) / RFU GAP43 (11754022_s_at) / Fold change /veh GAP43 (11754022_s_at) / RFU A4GNT (11735810_at) / Fold change /veh A4GNT (11735810_at) / RFU PRB3 (11715151_x_at) / Fold change /veh PRB3 (11715151_x_at) / RFU TUBB4B (11761932_at) / Fold change /veh TUBB4B (11761932_at) / RFU CAPN14 (11732068_a_at) / Fold change /veh CAPN14 (11732068_a_at) / RFU TMCC2 (11721928_a_at) / Fold change /veh TMCC2 (11721928_a_at) / RFU IRGQ (11745062_a_at) / Fold change /veh IRGQ (11745062_a_at) / RFU FAM174B (11720279_a_at) / Fold change /veh FAM174B (11720279_a_at) / RFU TMPRSS4 (11748680_a_at) / Fold change /veh TMPRSS4 (11748680_a_at) / RFU FAM212B (11763350_a_at) / Fold change /veh FAM212B (11763350_a_at) / RFU PLEKHG5 (11743358_a_at) / Fold change /veh PLEKHG5 (11743358_a_at) / RFU ZSCAN30 (11745921_a_at) / Fold change /veh ZSCAN30 (11745921_a_at) / RFU CMKLR1 (11741424_a_at) / Fold change /veh CMKLR1 (11741424_a_at) / RFU LOC101060620 /// MAPK8IP1 (11723275_at) / Fold change /veh LOC101060620 /// MAPK8IP1 (11723275_at) / RFU SPTSSB (11747773_x_at) / Fold change /veh SPTSSB (11747773_x_at) / RFU PRSS12 (11739890_at) / Fold change /veh PRSS12 (11739890_at) / RFU BIN1 (11741810_x_at) / Fold change /veh BIN1 (11741810_x_at) / RFU WNT11 (11732464_a_at) / Fold change /veh WNT11 (11732464_a_at) / RFU C10orf10 (11716521_a_at) / Fold change /veh C10orf10 (11716521_a_at) / RFU C5orf56 (11738089_at) / Fold change /veh C5orf56 (11738089_at) / RFU CYB561 (11721691_x_at) / Fold change /veh CYB561 (11721691_x_at) / RFU ANKRD19P (11752326_a_at) / Fold change /veh ANKRD19P (11752326_a_at) / RFU OR2T12 /// OR2T33 /// OR2T8 (11738714_s_at) / Fold change /veh OR2T12 /// OR2T33 /// OR2T8 (11738714_s_at) / RFU VCAN (11748164_a_at) / Fold change /veh VCAN (11748164_a_at) / RFU JSRP1 (11732532_at) / Fold change /veh JSRP1 (11732532_at) / RFU KRTAP10-11 (11738290_x_at) / Fold change /veh KRTAP10-11 (11738290_x_at) / RFU MYO3A (11730013_a_at) / Fold change /veh MYO3A (11730013_a_at) / RFU EBF3 (11725865_a_at) / Fold change /veh EBF3 (11725865_a_at) / RFU CAMK2N1 (11719241_x_at) / Fold change /veh CAMK2N1 (11719241_x_at) / RFU C5orf56 (11738088_a_at) / Fold change /veh C5orf56 (11738088_a_at) / RFU OLFML3 (11715873_a_at) / Fold change /veh OLFML3 (11715873_a_at) / RFU LOC100653217 /// NTM (11731650_a_at) / Fold change /veh LOC100653217 /// NTM (11731650_a_at) / RFU MAPK11 (11762145_a_at) / Fold change /veh MAPK11 (11762145_a_at) / RFU FIZ1 (11724087_x_at) / Fold change /veh FIZ1 (11724087_x_at) / RFU OASL (11726364_x_at) / Fold change /veh OASL (11726364_x_at) / RFU SOX15 (11748057_x_at) / Fold change /veh SOX15 (11748057_x_at) / RFU CD79A (11719716_a_at) / Fold change /veh CD79A (11719716_a_at) / RFU HIST1H1D (11736915_at) / Fold change /veh HIST1H1D (11736915_at) / RFU CASKIN2 (11723855_a_at) / Fold change /veh CASKIN2 (11723855_a_at) / RFU LOC730098 (11760151_x_at) / Fold change /veh LOC730098 (11760151_x_at) / RFU OR4N2 (11742367_at) / Fold change /veh OR4N2 (11742367_at) / RFU PRRT2 (11749266_a_at) / Fold change /veh PRRT2 (11749266_a_at) / RFU SNX32 (11753110_a_at) / Fold change /veh SNX32 (11753110_a_at) / RFU CDHR5 (11726645_a_at) / Fold change /veh CDHR5 (11726645_a_at) / RFU RCAN1 (11760418_a_at) / Fold change /veh RCAN1 (11760418_a_at) / RFU FAM167A (11723789_a_at) / Fold change /veh FAM167A (11723789_a_at) / RFU FAM26E (11764081_at) / Fold change /veh FAM26E (11764081_at) / RFU ISYNA1 (11749810_s_at) / Fold change /veh ISYNA1 (11749810_s_at) / RFU ACY1 (11761880_at) / Fold change /veh ACY1 (11761880_at) / RFU 11764098_at / Fold change /veh 11764098_at / RFU SAMD14 (11745864_x_at) / Fold change /veh SAMD14 (11745864_x_at) / RFU NPB (11741838_a_at) / Fold change /veh NPB (11741838_a_at) / RFU TMPRSS6 (11731388_a_at) / Fold change /veh TMPRSS6 (11731388_a_at) / RFU KRTAP10-2 (11738614_at) / Fold change /veh KRTAP10-2 (11738614_at) / RFU ARHGAP8 /// PRR5-ARHGAP8 (11727945_x_at) / Fold change /veh ARHGAP8 /// PRR5-ARHGAP8 (11727945_x_at) / RFU KRTAP5-7 /// NADSYN1 (11734609_at) / Fold change /veh KRTAP5-7 /// NADSYN1 (11734609_at) / RFU RASL12 (11751679_a_at) / Fold change /veh RASL12 (11751679_a_at) / RFU CDKN2B (11736163_a_at) / Fold change /veh CDKN2B (11736163_a_at) / RFU PRF1 (11729649_at) / Fold change /veh PRF1 (11729649_at) / RFU, ZNF638 /// ZNF638-IT1 / Fold change vs veh, ZNF638 /// ZNF638-IT1 / RFU, PANK3 / Fold change vs veh, PANK3 / RFU, SH3YL1 / Fold change vs veh, SH3YL1 / RFU, ZEB2 / Fold change vs veh, ZEB2 / RFU, NRIP1 / Fold change vs veh, NRIP1 / RFU, PTTG1IP / Fold change vs veh, PTTG1IP / RFU, CAPN2 / Fold change vs veh, CAPN2 / RFU, MED14 / Fold change vs veh, MED14 / RFU, SNORA58 / Fold change vs veh, SNORA58 / RFU, C1orf63 / Fold change vs veh, C1orf63 / RFU, LRRFIP1 / Fold change vs veh, LRRFIP1 / RFU, NDUFAF7 / Fold change vs veh, NDUFAF7 / RFU, SLC12A2 / Fold change vs veh, SLC12A2 / RFU, IBTK / Fold change vs veh, IBTK / RFU, ESF1 / Fold change vs veh, ESF1 / Fold change vs veh, TMEM50B / RFU, TAOK1 / Fold change vs veh, TAOK1 / RFU, ACBD3 / Fold change vs veh, ACBD3 / RFU, TMA16 / Fold change vs veh, TMA16 / RFU, RWDD3 / Fold change vs veh, RWDD3 / RFU, BCAT1 / Fold change vs veh, BCAT1 / RFU, EDEM3 / Fold change vs veh, EDEM3 / RFU, TMEM33 / Fold change vs veh, TMEM33 / RFU, WDR75 / Fold change vs veh, WDR75 / RFU, AHCTF1 / Fold change vs veh, AHCTF1 / RFU, TFRC / Fold change vs veh, TFRC / RFU, ZDHHC17 / Fold change vs veh, ZDHHC17 / RFU, NOM1 / Fold change vs veh, NOM1 / RFU, ARL8B / Fold change vs veh, ARL8B / RFU, ZBTB11 / Fold change vs veh, ZBTB11 / RFU, TAMM41 / Fold change vs veh, TAMM41 / RFU, KIAA1704 /// LOC100996395 / Fold change vs veh, KIAA1704 /// LOC100996395 / RFU, ING1 / Fold change vs veh, ING1 / RFU, TRMT61B / Fold change vs veh, TRMT61B / RFU, FUBP3 / Fold change vs veh, FUBP3 / RFU, TP53 / Fold change vs veh, TP53 / RFU, TNKS2 / Fold change vs veh, TNKS2 / RFU, ZFP14 / Fold change vs veh, ZFP14 / RFU, ACTR2 / Fold change vs veh, ACTR2 / RFU, PPP3R1 / Fold change vs veh, PPP3R1 / RFU, PIK3R1 / Fold change vs veh, PIK3R1 / RFU, HNRNPA1 / Fold change vs veh, HNRNPA1 / RFU, RNF170 / Fold change vs veh, RNF170 / RFU, ZNF28 / Fold change vs veh, ZNF28 / RFU, RNGTT / Fold change vs veh, RNGTT / RFU, OGT / Fold change vs veh, OGT / RFU, BRD1 / Fold change vs veh, BRD1 / RFU, MARS / Fold change vs veh, MARS / RFU, ZNF655 / Fold change vs veh, ZNF655 / RFU, FAHD1 / Fold change vs veh, FAHD1 / RFU, BDP1 / Fold change vs veh, BDP1 / RFU, LRRCC1 / Fold change vs veh, LRRCC1 / RFU, ARID1A / Fold change vs veh, ARID1A / RFU, ZNF146 / Fold change vs veh, ZNF146 / RFU, ZNF330 / Fold change vs veh, ZNF330 / RFU, GPN3 / Fold change vs veh, GPN3 / RFU, C9orf123 / Fold change vs veh, C9orf123 / RFU, N4BP2L2 / Fold change vs veh, N4BP2L2 / RFU, ARFIP1 / Fold change vs veh, ARFIP1 / RFU, FAM179B / Fold change vs veh, FAM179B / RFU, BCL10 / Fold change vs veh, BCL10 / RFU, UHRF1BP1L / Fold change vs veh, UHRF1BP1L / RFU, BET1 / Fold change vs veh, BET1 / RFU, CNOT2 / Fold change vs veh, CNOT2 / RFU, ZNF268 / Fold change vs veh, ZNF268 / Fold change vs veh, ZNF507 / RFU, DGCR2 / Fold change vs veh, DGCR2 / RFU, WDSUB1 / Fold change vs veh, WDSUB1 / Fold change vs veh, HSP90B1 /// MIR3652 / RFU, ADSS / Fold change vs veh, ADSS / RFU, GK / Fold change vs veh, GK / RFU, ZNF148 / Fold change vs veh, ZNF148 / RFU, TAF9 / Fold change vs veh, TAF9 / RFU, SLC1A5 / Fold change vs veh, SLC1A5 / RFU, SLMO2 / Fold change vs veh, SLMO2 / RFU, ABCC4 / Fold change vs veh, ABCC4 / RFU, LOC101060439 /// RAP1B / Fold change vs veh, LOC101060439 /// RAP1B / RFU, RFX7 / Fold change vs veh, RFX7 / RFU, GTPBP10 / Fold change vs veh, GTPBP10 / RFU, CNEP1R1 / Fold change vs veh, CNEP1R1 / RFU, BIVM-ERCC5 /// ERCC5 / Fold change vs veh, BIVM-ERCC5 /// ERCC5 / RFU, ILF3 / Fold change vs veh, ILF3 / RFU 11762660_at / Fold change /veh 11762660_at / RFU VCAN (11757783_s_at) / Fold change /veh VCAN (11757783_s_at) / RFU DDX43 (11728927_at) / Fold change /veh DDX43 (11728927_at) / RFU KRT8 (11758188_x_at) / Fold change /veh KRT8 (11758188_x_at) / RFU NKD1 (11759106_at) / Fold change /veh NKD1 (11759106_at) / RFU SRD5A1 (11742802_a_at) / Fold change /veh SRD5A1 (11742802_a_at) / RFU TPSAB1 /// TPSB2 (11721975_s_at) / Fold change /veh TPSAB1 /// TPSB2 (11721975_s_at) / RFU GSTM3 (11746129_a_at) / Fold change /veh GSTM3 (11746129_a_at) / RFU IL23R (11737362_x_at) / Fold change /veh IL23R (11737362_x_at) / RFU TMEM51 (11727254_a_at) / Fold change /veh TMEM51 (11727254_a_at) / RFU PIWIL2 (11732686_x_at) / Fold change /veh PIWIL2 (11732686_x_at) / RFU ORM1 (11744905_x_at) / Fold change /veh ORM1 (11744905_x_at) / RFU CCDC152 (11743942_at) / Fold change /veh CCDC152 (11743942_at) / RFU ECM1 (11717891_a_at) / Fold change /veh ECM1 (11717891_a_at) / RFU IL23R (11748794_a_at) / Fold change /veh IL23R (11748794_a_at) / RFU TNFAIP8L3 (11732012_x_at) / Fold change /veh TNFAIP8L3 (11732012_x_at) / RFU MBOAT4 (11741988_at) / Fold change /veh MBOAT4 (11741988_at) / RFU 11764193_at / Fold change /veh 11764193_at / RFU TMEM53 (11763286_at) / Fold change /veh TMEM53 (11763286_at) / RFU MAGEB2 (11727129_at) / Fold change /veh MAGEB2 (11727129_at) / RFU TMEM200A (11744735_a_at) / Fold change /veh TMEM200A (11744735_a_at) / RFU CCDC152 (11751479_a_at) / Fold change /veh CCDC152 (11751479_a_at) / RFU FAM211A (11726209_a_at) / Fold change /veh FAM211A (11726209_a_at) / RFU RGS16 (11746705_a_at) / Fold change /veh RGS16 (11746705_a_at) / RFU VCAN (11755009_s_at) / Fold change /veh VCAN (11755009_s_at) / RFU RHOB (11743442_s_at) / Fold change /veh RHOB (11743442_s_at) / RFU RGS16 (11720943_a_at) / Fold change /veh RGS16 (11720943_a_at) / RFU RGS16 (11720944_at) / Fold change /veh RGS16 (11720944_at) / RFU, VPS4B / Fold change vs veh, VPS4B / RFU, CREB1 / Fold change vs veh, CREB1 / RFU, DNAJC13 / Fold change vs veh, DNAJC13 / RFU, GNAQ / Fold change vs veh, GNAQ / RFU, CDK5R1 / Fold change vs veh, CDK5R1 / RFU, ZRANB3 / Fold change vs veh, ZRANB3 / RFU, CUL4A / Fold change vs veh, CUL4A / RFU, CCNY / Fold change vs veh, CCNY / RFU, UFL1 / Fold change vs veh, UFL1 / RFU, COG3 / Fold change vs veh, COG3 / RFU, DIAPH2 / Fold change vs veh, DIAPH2 / RFU, SKA2 / Fold change vs veh, SKA2 / RFU, AFF3 / Fold change vs veh, AFF3 / RFU, LMF1 / Fold change vs veh, LMF1 / RFU, IPO11 / Fold change vs veh, IPO11 / RFU, DFFB / Fold change vs veh, DFFB / RFU, FOXP1 / Fold change vs veh, FOXP1 / RFU, CARD8 / Fold change vs veh, CARD8 / RFU, STRN3 / Fold change vs veh, STRN3 / RFU, ADK / Fold change vs veh, ADK / RFU, RASSF2 / Fold change vs veh, RASSF2 / RFU, WIPF1 / Fold change vs veh, WIPF1 / RFU, LARP1B / Fold change vs veh, LARP1B / RFU, RASA1 / Fold change vs veh, RASA1 / RFU, RB1 / Fold change vs veh, RB1 / RFU, PPFIA1 / Fold change vs veh, PPFIA1 / RFU, MAT2A / Fold change vs veh, MAT2A / RFU, CCT5 / Fold change vs veh, CCT5 / RFU, WDR92 / Fold change vs veh, WDR92 / RFU, CUX1 / Fold change vs veh, CUX1 / RFU, TTC7A / Fold change vs veh, TTC7A / RFU, TMEM135 / Fold change vs veh, TMEM135 / RFU, DEPTOR / Fold change vs veh, DEPTOR / RFU, CPM / Fold change vs veh, CPM / RFU, DNAJB6 / Fold change vs veh, DNAJB6 / RFU, CACNA2D3 / Fold change vs veh, CACNA2D3 / RFU, DTX4 / Fold change vs veh, DTX4 / RFU, TFCP2 / Fold change vs veh, TFCP2 / RFU, GMCL1 /// GMCL1P1 / Fold change vs veh, GMCL1 /// GMCL1P1 / RFU, AEBP2 / Fold change vs veh, AEBP2 / RFU, SNHG1 /// SNORD22 /// SNORD25 /// SNORD26 /// SNORD27 /// SNORD28 /// SNORD29 /// SNORD31 / Fold change vs veh, SNHG1 /// SNORD22 /// SNORD25 /// SNORD26 /// SNORD27 /// SNORD28 /// SNORD29 /// SNORD31 / Fold change (Aza/veh), C12orf56 (ProbeSet 11735607_a_at) / Fold change (ACY-1035/veh), C12orf56 (ProbeSet 11735607_a_at) / Fold change (Aza/veh), FGFR1OP (ProbeSet 11751329_s_at) / Fold change (ACY-1035/veh), FGFR1OP (ProbeSet 11751329_s_at) / Fold change (Aza/veh), VPS36 (ProbeSet 11739960_a_at) / Fold change (ACY-1035/veh), VPS36 (ProbeSet 11739960_a_at) / RFU SYPL1 (11715823_x_at) / Fold change /veh SYPL1 (11715823_x_at) / RFU IGFBP7 (11715501_s_at) / Fold change /veh IGFBP7 (11715501_s_at) / RFU REEP3 (11722064_at) / Fold change /veh REEP3 (11722064_at) / RFU IGLL1 (11728026_x_at) / Fold change /veh IGLL1 (11728026_x_at): dose or concentration left out as unconfirmed
Settings: MV-4-11 cells, 48 hours

`Nc1ccc(-c2cccs2)cc1NC(=O)c1ccc2c(c1)cc(C1CC1)n2CCN1CCOCC1` [ACY-1035] was tested, and the “Fold change /veh KRTAP10-11 (11738290_x_at)” value was 1.00.
